Laboratory results: patent US11878975B2, “Substituted indole compounds useful as TLR inhibitors” (BRISTOL-MYERS SQUIBB COMPANY, priority 2017, dated 2024)

Assays:
Format in all cases: cell-based
[1] = target: T1, human TLR7 (Homo sapiens, UniProt Q9NYK1); assay: TLR7 inhibition reporter assay (HEK-Blue cells, SEAP reporter, gardiquimod stimulation); details: HEK-Blue cells overexpressing human TLR7, SEAP reporter, gardiquimod 7.5 μM
T1 construct: host or cells: HEK-Blue cells
T1 sequence (Q9NYK1 27-1049): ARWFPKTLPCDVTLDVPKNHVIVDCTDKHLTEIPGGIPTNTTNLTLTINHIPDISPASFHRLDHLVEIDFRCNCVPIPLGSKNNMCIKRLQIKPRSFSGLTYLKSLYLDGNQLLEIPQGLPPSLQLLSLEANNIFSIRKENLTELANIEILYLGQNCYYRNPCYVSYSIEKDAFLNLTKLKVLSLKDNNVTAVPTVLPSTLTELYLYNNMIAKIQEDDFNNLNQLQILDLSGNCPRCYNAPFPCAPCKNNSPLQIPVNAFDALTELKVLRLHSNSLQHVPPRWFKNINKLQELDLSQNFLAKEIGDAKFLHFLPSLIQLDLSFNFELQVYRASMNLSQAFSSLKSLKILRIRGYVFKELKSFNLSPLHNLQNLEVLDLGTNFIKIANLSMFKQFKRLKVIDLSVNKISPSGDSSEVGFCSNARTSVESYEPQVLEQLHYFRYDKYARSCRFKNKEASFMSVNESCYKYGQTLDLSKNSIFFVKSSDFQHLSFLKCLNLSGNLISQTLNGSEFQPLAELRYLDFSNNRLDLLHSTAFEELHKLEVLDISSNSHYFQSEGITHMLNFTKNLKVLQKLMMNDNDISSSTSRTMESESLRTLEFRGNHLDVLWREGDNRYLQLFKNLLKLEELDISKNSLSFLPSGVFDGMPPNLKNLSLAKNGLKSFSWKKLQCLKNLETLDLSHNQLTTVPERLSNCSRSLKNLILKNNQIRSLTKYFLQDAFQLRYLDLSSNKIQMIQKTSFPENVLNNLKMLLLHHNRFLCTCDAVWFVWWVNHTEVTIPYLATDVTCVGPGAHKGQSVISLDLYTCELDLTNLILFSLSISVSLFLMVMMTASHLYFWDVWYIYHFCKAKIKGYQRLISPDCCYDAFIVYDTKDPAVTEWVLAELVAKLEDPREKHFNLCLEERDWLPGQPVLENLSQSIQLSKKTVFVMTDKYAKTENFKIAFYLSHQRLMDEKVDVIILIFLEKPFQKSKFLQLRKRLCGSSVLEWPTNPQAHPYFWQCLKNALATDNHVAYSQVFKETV
How it was run: (§1)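 HEK-Blue cells with NF-κB/AP-1-driven SEAP reporter, pre-treated 30 min at room temperature with compound (0.05 nM-50 μM). Stimulants: gardiquimod 7.5 μM (TLR7), R848 15.9 μM (TLR8) or ODN2006 5 nM (TLR9). SEAP measured after 22 h at 37° C.; percent inhibition versus agonist-plus-DMSO and known-inhibitor wells.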

[2] = target: T2, human TLR9 (Homo sapiens, UniProt Q9NR96); assay: TLR9 inhibition reporter assay (HEK-Blue cells, SEAP reporter, ODN2006 stimulation); details: HEK-Blue cells overexpressing human TLR9, SEAP reporter, ODN2006 5 nM
T2 construct: host or cells: HEK-Blue cells
T2 sequence (Q9NR96 26-1032): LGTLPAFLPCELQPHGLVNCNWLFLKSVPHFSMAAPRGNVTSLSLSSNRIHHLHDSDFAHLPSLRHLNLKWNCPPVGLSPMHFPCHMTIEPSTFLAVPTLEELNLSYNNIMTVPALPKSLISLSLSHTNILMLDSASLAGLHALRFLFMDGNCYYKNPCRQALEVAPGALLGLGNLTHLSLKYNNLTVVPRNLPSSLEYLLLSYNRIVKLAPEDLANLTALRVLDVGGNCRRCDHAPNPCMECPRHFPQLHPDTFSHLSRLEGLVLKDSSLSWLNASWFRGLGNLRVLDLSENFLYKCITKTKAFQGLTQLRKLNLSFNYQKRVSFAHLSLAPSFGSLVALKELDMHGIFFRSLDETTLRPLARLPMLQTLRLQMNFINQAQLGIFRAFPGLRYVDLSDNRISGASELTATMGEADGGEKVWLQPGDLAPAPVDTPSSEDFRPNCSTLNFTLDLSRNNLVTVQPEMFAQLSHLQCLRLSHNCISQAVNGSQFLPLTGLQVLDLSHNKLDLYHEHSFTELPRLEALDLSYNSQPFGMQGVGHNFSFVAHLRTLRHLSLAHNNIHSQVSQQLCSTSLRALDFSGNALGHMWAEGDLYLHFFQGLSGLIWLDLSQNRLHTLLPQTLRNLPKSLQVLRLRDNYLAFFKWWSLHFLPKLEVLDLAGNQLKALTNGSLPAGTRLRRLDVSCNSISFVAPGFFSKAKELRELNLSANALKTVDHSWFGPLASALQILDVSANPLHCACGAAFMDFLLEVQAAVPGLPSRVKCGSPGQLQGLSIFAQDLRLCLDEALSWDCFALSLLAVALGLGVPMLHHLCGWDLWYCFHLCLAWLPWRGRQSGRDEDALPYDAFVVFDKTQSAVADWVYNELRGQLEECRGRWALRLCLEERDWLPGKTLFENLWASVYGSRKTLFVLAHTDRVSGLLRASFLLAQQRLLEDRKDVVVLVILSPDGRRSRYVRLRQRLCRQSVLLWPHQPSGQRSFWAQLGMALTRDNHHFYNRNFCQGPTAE
How it was run: as §1

[3] = target: T3, human TLR8 (Homo sapiens, UniProt Q9NR97); assay: TLR8 inhibition reporter assay (HEK-Blue cells, SEAP reporter, R848 stimulation); details: HEK-Blue cells overexpressing human TLR8, SEAP reporter, R848 15.9 μM
T3 construct: host or cells: HEK-Blue cells
T3 sequence (Q9NR97 27-1041): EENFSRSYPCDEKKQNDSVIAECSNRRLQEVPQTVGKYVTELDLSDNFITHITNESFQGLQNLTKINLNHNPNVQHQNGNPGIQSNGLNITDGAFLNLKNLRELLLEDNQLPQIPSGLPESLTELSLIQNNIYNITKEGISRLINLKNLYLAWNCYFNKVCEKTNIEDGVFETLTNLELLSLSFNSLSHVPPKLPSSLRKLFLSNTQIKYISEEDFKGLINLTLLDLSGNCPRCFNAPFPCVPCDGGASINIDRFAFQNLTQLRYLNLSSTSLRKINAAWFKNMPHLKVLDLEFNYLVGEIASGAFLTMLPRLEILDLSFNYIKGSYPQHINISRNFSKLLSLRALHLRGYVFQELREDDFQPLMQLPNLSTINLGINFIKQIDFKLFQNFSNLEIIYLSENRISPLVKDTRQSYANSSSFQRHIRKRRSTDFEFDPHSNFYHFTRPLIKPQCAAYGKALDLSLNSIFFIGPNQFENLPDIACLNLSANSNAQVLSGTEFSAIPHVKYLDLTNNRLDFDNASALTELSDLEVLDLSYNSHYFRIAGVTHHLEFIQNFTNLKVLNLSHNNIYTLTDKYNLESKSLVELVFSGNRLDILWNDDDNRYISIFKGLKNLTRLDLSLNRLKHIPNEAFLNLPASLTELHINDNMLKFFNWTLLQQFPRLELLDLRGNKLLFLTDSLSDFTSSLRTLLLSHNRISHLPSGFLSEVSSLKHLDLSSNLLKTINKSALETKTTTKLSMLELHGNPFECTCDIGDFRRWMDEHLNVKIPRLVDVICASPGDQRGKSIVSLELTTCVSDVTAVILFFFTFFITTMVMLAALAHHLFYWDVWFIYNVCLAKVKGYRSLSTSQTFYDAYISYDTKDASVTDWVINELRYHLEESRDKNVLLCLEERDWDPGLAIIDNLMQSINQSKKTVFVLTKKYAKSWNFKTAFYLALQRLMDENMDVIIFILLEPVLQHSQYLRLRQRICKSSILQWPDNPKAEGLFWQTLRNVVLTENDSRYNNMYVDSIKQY
How it was run: as §1

Row | Compound | IC50 [1] [nM] | IC50 [2] [µM] | IC50 [3] [nM]
1 | COc1cc(-c2[nH]c3ccc(C4CNCCO4)cc3c2C(C)C)cn2ncnc12 (stereo not drawn) [Example 285] | 0.43 | 0.959 | 0.56
2 | Cc1c(-c2[nH]c3ccc(C4CNCCO4)cc3c2C(C)C)cn2ncnc2c1C (stereo not drawn) [Example 286] | 1 | 5.39 | 0.73
3 | Cc1c(-c2[nH]c3ccc(C4CNCCO4)cc3c2C(C)C)cn2ncnc2c1C (stereo not drawn) [Example 287] | 0.7 | 2.55 | 0.62
4 | Cc1c(-c2[nH]c3ccc(C4CNCCO4)cc3c2C(C)C)cn2ncnc2c1C (stereo not drawn) [Example 288] | 0.61 | 3.16 | 0.52
5 | Cc1cc(-c2[nH]c3ccc(C4CN(C5COC5)CCO4)cc3c2C(C)C)cn2ncnc12 (stereo not drawn) [Example 289, 2-(3-isopropyl-2-(8-methyl-[1,2,4]triazolo[1,5-a]pyridin-6-yl)-1H-indol-5-yl)-4-(oxetan-3-yl)morpholine] | 9 | > 50 | 24
6 | Cc1cc(-c2[nH]c3ccc(C4CN(C5COC5)CCO4)cc3c2C(C)C)cn2ncnc12 (stereo not drawn) [Example 290] | 36 | > 50 | 177
7 | Cc1cc(-c2[nH]c3ccc(C4CN(CC5(C)COC5)CCO4)cc3c2C(C)C)cn2ncnc12 (stereo not drawn) [Example 291] | 20 | > 50 | 26
8 | Cc1cc(-c2[nH]c3ccc(C4CN(CC5(C)COC5)CCO4)cc3c2C(C)C)cn2ncnc12 (stereo not drawn) [Example 292] | 22 | 34.2 | 2.8
9 | Cc1cc(-c2[nH]c3ccc(C4CN(C)CCO4)cc3c2C(C)C)cn2ncnc12 (stereo not drawn) [Example 293] | 2 | 10.1 | 1.1
10 | Cc1cc(-c2[nH]c3ccc(C4CN(C)CCO4)cc3c2C(C)C)cn2ncnc12 (stereo not drawn) [Example 296] | 3 | 8.27 | 6.3
11 | Cc1cc(-c2[nH]c3ccc(C4CN(C)CCO4)cc3c2C(C)C)cn2ncnc12 (stereo not drawn) [Example 297] | 2 | 6.63 | 0.61
12 | COc1cc(-c2[nH]c3ccc(C4CN(C)CCO4)cc3c2C(C)C)cn2ncnc12 (stereo not drawn) [Example 299] | 2 | 5.57 | 3.3
13 | COc1cc(-c2[nH]c3ccc(C4CN(C(C)C)CCO4)cc3c2C(C)C)cn2ncnc12 (stereo not drawn) [Example 300] | 2 | 2.5 | 6.4
14 | COc1cc(-c2[nH]c3ccc(C4CN(C)CCO4)cc3c2C(C)C)cn2ncnc12 (stereo not drawn) [Example 301] | 7 | 6.14 | 0.56
15 | COc1cc(-c2[nH]c3ccc(C4CN(C(C)C)CCO4)cc3c2C(C)C)cn2ncnc12 (stereo not drawn) [Example 302] | 2 | 2.6 | 0.42

The next lines start with the values.

Row | IC50 [1] [nM] | IC50 [2] [µM] | IC50 [3] [nM] | Compound
16 | 15 | 0.699 | 12 | Cc1cc(-c2[nH]c3ccc(C4CN(C(C)C)CCO4)cc3c2C(C)C)cc(C)n1 (stereo not drawn) [Example 303]
17 | 89 | > 50 | 108 | Cc1cc(-c2[nH]c3ccc(C4CN(C5COC5)CCO4)cc3c2C(C)C)cc(C)n1 (stereo not drawn) [Example 304]
18 | 32 | 1.01 | 0.94 | Cc1cc(-c2[nH]c3ccc(C4CN(C(C)C)CCO4)cc3c2C(C)C)cc(C)n1 (stereo not drawn) [Example 305]
19 | 8 | > 50 | 39 | Cc1cc(-c2[nH]c3ccc(C4CN(CC(=O)N(C)C)CCO4)cc3c2C(C)C)cn2ncnc12 (stereo not drawn) [Example 306, 2-(2-(3-isopropyl-2-(8-methyl-[1,2,4]triazolo[1,5-a]pyridin-6-yl)-1H-indol-5-yl)morpholino)-N,N-dimethylacetamide]
20 | 8 | > 50 | 47 | CNC(=O)CN1CCOC(c2ccc3[nH]c(-c4cc(C)c5ncnn5c4)c(C(C)C)c3c2)C1 (stereo not drawn) [Example 307]
21 | 15 | > 50 | 57 | CNC(=O)CN1CCOC(c2ccc3[nH]c(-c4cc(OC)c5ncnn5c4)c(C(C)C)c3c2)C1 (stereo not drawn) [Example 310]
22 | 17 | > 50 | 38 | CNC(=O)CN1CCOC(c2ccc3[nH]c(-c4cn5ncnc5c(C)c4C)c(C(C)C)c3c2)C1 (stereo not drawn) [Example 311]
23 | 46 | > 50 | 21 | Cc1c(-c2[nH]c3ccc(C4CN(CC(=O)N(C)C)CCO4)cc3c2C(C)C)cn2ncnc2c1C (stereo not drawn) [Example 312]
24 | 25 | > 50 | 60 | CNC(=O)CN1CCOC(c2ccc3[nH]c(-c4cn5ncnc5c(C)c4C)c(C(C)C)c3c2)C1 (stereo not drawn) [Example 313]
25 | 24 | > 50 | 13 | COc1cc(-c2[nH]c3ccc(C4CN(CC(=O)N(C)C)CCO4)cc3c2C(C)C)cn2ncnc12 (stereo not drawn) [Example 314]
26 | 9 | > 50 | 26 | CNC(=O)CN1CCOC(c2ccc3[nH]c(-c4cc(OC)c5ncnn5c4)c(C(C)C)c3c2)C1 (stereo not drawn) [Example 315]
